Earlier results in patent US20050113418A1, “Administration of pharmaceuticals” (priority 1996, published 2005).

Conditions: Lind et al, Gut 1983

Structure (SMILES): COc1ccc2[nH]c([S+]([O-])Cc3ncc(C)c(OC)c3C)nc2c1 (stereo not shown) [Omeprazole, omeprazole]
- plasma half-life: 30 to 60 min
